Counter-ions that a name gives are not always drawn. Like-named read-outs stand apart in the source and are kept apart here.
Tests used:
Format in all cases: biochemical
recombinant PRL-3 = molecular target: T1, recombinant PRL-3 (Homo sapiens, UniProt O75365); test: In vitro phosphatase assay (DiFMUP hydrolysis), PRL-3
T1 construct: 6xHis (N, cleaved yes); made in house; host or cells: E. coli One Shot BL21 Star

recombinant PRL-2 = molecular target: T2, recombinant PRL-2 (Homo sapiens, UniProt Q12974); test: In vitro phosphatase assay (DiFMUP hydrolysis), PRL-2;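 also: PRL-2 activity read as DiFMUP hydrolysis after 20 min at room temperature with drug, enzyme first pre-reduced at 4 °C for 20 min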
T2 construct: 6xHis (N, cleaved yes); made in house; host or cells: E. coli One Shot BL21 Star
T2 sequence (Q12974 1-167): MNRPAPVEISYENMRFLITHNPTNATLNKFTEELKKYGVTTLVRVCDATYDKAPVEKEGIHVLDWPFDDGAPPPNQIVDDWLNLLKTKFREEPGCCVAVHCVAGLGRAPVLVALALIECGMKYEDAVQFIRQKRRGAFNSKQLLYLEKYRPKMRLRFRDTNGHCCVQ

recombinant PRL-1 = molecular target: T3, recombinant PRL-1 (Homo sapiens, UniProt Q93096); test: In vitro phosphatase assay (DiFMUP hydrolysis), PRL-1
T3 construct: 6xHis (N, cleaved yes); made in house; host or cells: E. coli One Shot BL21 Star
T3 sequence (Q93096 1-173): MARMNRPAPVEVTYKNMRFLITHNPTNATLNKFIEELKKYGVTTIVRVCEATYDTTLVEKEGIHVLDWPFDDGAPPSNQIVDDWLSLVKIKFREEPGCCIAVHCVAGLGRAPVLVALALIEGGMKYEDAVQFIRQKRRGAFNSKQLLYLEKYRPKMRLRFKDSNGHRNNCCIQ

[1] = FDA-approved drug screen, compared to DMSO
[2] = FDA-approved drug screen, activity compared to DMSO

T1 sequence (O75365 whole entry): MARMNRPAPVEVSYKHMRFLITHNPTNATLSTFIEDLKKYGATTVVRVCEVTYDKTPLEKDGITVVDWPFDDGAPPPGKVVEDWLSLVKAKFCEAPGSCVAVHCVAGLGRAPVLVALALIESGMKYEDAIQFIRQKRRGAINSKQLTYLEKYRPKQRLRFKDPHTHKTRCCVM

| Compound | % Phosphatase Activity (compared to DMSO) PRL-3 (recombinant PRL-3; [1]) [%] | % Phosphatase Activity (compared to DMSO) PRL-2 (recombinant PRL-2; [1]) [%] | % Phosphatase Activity (compared to DMSO) PRL-1 (recombinant PRL-1; [1]) [%] | also measured |
| --- | --- | --- | --- | --- |
| OC(c1cc(C(F)(F)F)nc2c(C(F)(F)F)cccc12)C1CCCCN1 (stereo not shown) [Mefloquine HCl] | 109 | 106 | 100 | – |
| COc1cc(Nc2ncc(F)c(Nc3ccc4c(n3)N(COP(=O)(O)O)C(=O)C(C)(C)O4)n2)cc(OC)c1OC [Fostamatinib (R788)] | 96 | 111 | 92 | – |
| CC1(C)O[C@@H]2[C@@H](CO[C@@]3(COS(N)(=O)=O)OC(C)(C)O[C@@H]23)O1 [Topiramate] | – | – | – | % Phosphatase Activity (compared to DMSO) PRL-3 (recombinant PRL-3; [2]): 99%; % Phosphatase Activity (compared to DMSO) PRL-2 (recombinant PRL-2; [2]): 122%; % Phosphatase Activity (compared to DMSO) PRL-1 (recombinant PRL-1; [2]): 118% |
| NC(=O)Cc1cccc(C(=O)c2ccccc2)c1N [Nepafenac] | 72 | 93 | 96 | – |
| CC(=O)OCC(=O)[C@@]1(O)[C@H](C)C[C@H]2[C@@H]3CCC4=CC(=O)C=C[C@]4(C)[C@@]3(F)[C@@H](O)C[C@@]21C [Dexamethasone Acetate] | 86 | 93 | 90 | – |
| O[C@H]1[C@H](O)[C@@H](O)[C@H](O)[C@@H](O)[C@H]1O [i-Inositol] | 87 | 112 | 94 | – |
| CC[C@H](C)[C@H]1O[C@]2(CC[C@@H]1C)C[C@@H]1C[C@@H](C/C=C(\C)[C@@H](O[C@H]3C[C@H](OC)[C@@H](O[C@H]4C[C@H](OC)[C@@H](O)[C@H](C)O4)[C@H](C)O3)[C@@H](C)/C=C/C=C3\CO[C@@H]4[C@H](O)C(C)=C[C@@H](C(=O)O1)[C@]34O)O2 [Ivermectin] | 69 | 102 | 91 | – |
| O=C(O)c1cc(-c2ccccc2)nc2ccccc12 [Cinchophen] | 79 | 101 | 86 | – |
| CC(=O)O[C@]1(C(C)=O)CC[C@H]2[C@@H]3C=C(Cl)C4=CC(=O)[C@@H]5C[C@@H]5[C@]4(C)[C@H]3CC[C@@]21C [Cyproterone Acetate] | 99 | 91 | 92 | – |
| Cl.O=S(=O)(c1cccc2cnccc12)N1CCCNCC1 [Fasudil (HA-1077) HCl] | 82 | 95 | 102 | – |
| CN[C@H]1C[C@@H](N)[C@H](O)[C@@H](O[C@@H]2O[C@H](CO)[C@H](O)[C@@H]3OC4(O[C@H]23)O[C@H]([C@@H](N)CO)[C@H](O)[C@H](O)[C@H]4O)[C@@H]1O (stereo partly shown) [Hygromycin B] | 103 | 98 | 91 | – |
| COC(=O)/C=C/C(=O)OC [Dimethyl Fumarate] | 83 | 115 | 106 | – |
| Cl.NCC(=O)CCC(=O)O [5-Aminolevulinic acid HCl] | 86 | 130 | 106 | – |
| CCC(=O)OCC(=O)[C@@]1(OC(=O)CC)[C@@H](C)C[C@H]2[C@@H]3CCC4=CC(=O)C=C[C@]4(C)[C@@]3(Cl)[C@@H](O)C[C@@]21C [Beclomethasone dipropionate] | 90 | 91 | 98 | – |
| CCCCCCCCCCCC1=C(O)C(=O)C=C(O)C1=O [Embelin, reference compound] | 28 | 58 | 40 | IC50 (recombinant PRL-3; 2.5 µM protein, DiFMUP at KM, read-out: Calculated IC50, PRL-3 phosphatase activity): 52 ± 9 µM; IC50 (recombinant PRL-2; 2.5 µM protein, DiFMUP at KM, read-out: Calculated IC50, PRL-2 phosphatase activity): 124 ± 60 µM; IC50 (recombinant PRL-1; 2.5 µM protein, DiFMUP at KM, read-out: Calculated IC50, PRL-1 phosphatase activity): 114 ± 16 µM |
| COc1cc(C(=O)O)ccc1NC(=O)[C@@H]1N[C@@H](CC(C)(C)C)[C@](C#N)(c2ccc(Cl)cc2F)[C@H]1c1cccc(Cl)c1F [Idasanutlin (RG-7388)] | 2 | 15 | 7 | – |
| CCN(CC)CCNC(=O)c1c(C)[nH]c(/C=C2\C(=O)Nc3ccc(F)cc32)c1C [Sunitinib] | – | – | – | % Phosphatase Activity (compared to DMSO) PRL-3 (recombinant PRL-3; [2]): 77%; % Phosphatase Activity (compared to DMSO) PRL-2 (recombinant PRL-2; [2]): 42%; % Phosphatase Activity (compared to DMSO) PRL-1 (recombinant PRL-1; [2]): 67% |
| Cc1cccc(Nc2ccccc2C(=O)O)c1C [Mefenamic Acid] | 82 | 107 | 98 | – |
| C[C@]12Cc3c[nH]nc3C[C@@H]1CC[C@@H]1[C@@H]2CC[C@@]2(C)[C@H]1CC[C@]2(C)O [Stanozolol] | – | – | – | % Phosphatase Activity (compared to DMSO) PRL-3 (recombinant PRL-3): 93%; % Phosphatase Activity (compared to DMSO) PRL-2 (recombinant PRL-2): 84%; % Phosphatase Activity (compared to DMSO) PRL-1 (recombinant PRL-1): 89% |

| Compound | % Phosphatase Activity (compared to DMSO) PRL-3 (recombinant PRL-3; [1]) [%] | % Phosphatase Activity (compared to DMSO) PRL-2 (recombinant PRL-2; [1]) [%] | % Phosphatase Activity (compared to DMSO) PRL-1 (recombinant PRL-1; [1]) [%] | also measured |
| --- | --- | --- | --- | --- |
| Clc1ccc(C(Cn2ccnc2)OCc2csc3c(Cl)cccc23)c(Cl)c1 (stereo not shown) [Sertaconazole nitrate] | – | – | – | % Phosphatase Activity (compared to DMSO) PRL-3 (recombinant PRL-3; [2]): 99%; % Phosphatase Activity (compared to DMSO) PRL-2 (recombinant PRL-2; [2]): 101%; % Phosphatase Activity (compared to DMSO) PRL-1 (recombinant PRL-1; [2]): 110% |
| CC(C)CN(C[C@@H](O)[C@H](Cc1ccccc1)NC(=O)O[C@H]1CCOC1)S(=O)(=O)c1ccc(N)cc1 [Amprenavir] | 77 | 81 | 96 | – |
| O=P1(NCCCl)OCCCN1CCCl (stereo not shown) [Ifosfamide] | 78 | 99 | 100 | – |
| COC(=O)C1=C(C)NC(C)=C(C(=O)OCC(C)C)C1c1ccccc1[N+](=O)[O-] (stereo not shown) [Nisoldipine] | 85 | 75 | 81 | – |
| CCOC(=O)C1=C[C@]2(CC)CCCN3CCc4c(n1c1ccccc41)[C@@H]32 [Vinpocetine] | – | – | – | % Phosphatase Activity (compared to DMSO) PRL-3 (recombinant PRL-3; [2]): 79%; % Phosphatase Activity (compared to DMSO) PRL-2 (recombinant PRL-2; [2]): 114%; % Phosphatase Activity (compared to DMSO) PRL-1 (recombinant PRL-1; [2]): 95% |
| CN(C)[C@@H]1C(=O)C(C(N)=O)=C(O)[C@@]2(O)C(=O)C3=C(O)c4c(O)cccc4[C@@](C)(O)[C@H]3[C@H](O)[C@@H]12 [Oxytetracycline (Terramycin)] | 74 | 73 | 58 | – |
| O=C([O-])c1ccccc1O.[Na+] [Sodium salicylate] | – | – | – | % Phosphatase Activity (compared to DMSO) PRL-3 (recombinant PRL-3): 95%; % Phosphatase Activity (compared to DMSO) PRL-2 (recombinant PRL-2): 103%; % Phosphatase Activity (compared to DMSO) PRL-1 (recombinant PRL-1): 130% |
| C=C[C@]1(C)C[C@@H](OC(=O)CSC(C)(C)CNC(=O)[C@H](N)C(C)C)[C@]2(C)[C@H](C)CC[C@]3(CCC(=O)[C@H]32)[C@@H](C)[C@@H]1O.Cl [Valnemulin HCl] | – | – | – | % Phosphatase Activity (compared to DMSO) PRL-3 (recombinant PRL-3; [2]): 80%; % Phosphatase Activity (compared to DMSO) PRL-2 (recombinant PRL-2; [2]): 95%; % Phosphatase Activity (compared to DMSO) PRL-1 (recombinant PRL-1; [2]): 86% |
| CCCCCCCCCCCCCCCC(=O)O[C@@H]1[C@@H](O)[C@@H](O)[C@@H]([C@H](NC(=O)[C@@H]2C[C@@H](CCC)CN2C)[C@H](C)Cl)O[C@@H]1SC.Cl [Clindamycin palmitate HCl] | 106 | 133 | 107 | – |
| N#C[C@@H]1C[C@@H]2C[C@@H]2N1C(=O)[C@@H](N)C12CC3CC(CC(O)(C3)C1)C2 [Saxagliptin] | 79 | 113 | 106 | – |
| CNC(=O)[C@H](Cc1ccccc1)NC(=O)[C@H](CC(C)C)[C@H](CSc1cccs1)C(=O)NO [Batimastat (BB-94)] | 89 | 79 | 88 | – |
| CCN(CC)CCCC(C)Nc1ccnc2cc(Cl)ccc12 (stereo not shown) [Chloroquine Phosphate] | – | 115 | 104 | – |
| C=CCN1CC[C@]23c4c5ccc(O)c4O[C@H]2C(=O)CC[C@@]3(O)[C@H]1C5 [Naloxone HCl] | – | 123 | 105 | – |
| Gentamicin Sulfate | – | 96 | 95 | – |
| CN/C(=N/CCSCc1nc[nH]c1C)NC#N [Cimetidine] | – | – | – | % Phosphatase Activity (compared to DMSO) PRL-3 (recombinant PRL-3): 112%; % Phosphatase Activity (compared to DMSO) PRL-1 (recombinant PRL-1): 96% |
| O=C1NC(=O)C(c2ccccc2)(c2ccccc2)N1 [Phenytoin] | 84 | – | 104 | – |
| Maraviroc | 93 | – | 82 | – |
| Nc1ccc(S(=O)(=O)Nc2ncccn2)cc1 [Sulfadiazine] | – | – | – | % Phosphatase Activity (compared to DMSO) PRL-3 (recombinant PRL-3): 103%; % Phosphatase Activity (compared to DMSO) PRL-1 (recombinant PRL-1): 105% |
| Polymyxin B sulphate | 98 | – | 98 | – |
